Experimental findings from ChEMBL document CHEMBL5143555, “Potentiating the intracellular killing of Staphylococcus aureus by dihydroquinazoline analogues as NorA efflux pump inhibitor” (Bioorg Med Chem, 2022) are described below.

SMILES strings stand for the structures. Values after ≈ are worked out from the molar mass of the structure shown. Active and inactive are the calls of the source. The calls are words filed in the database; no cut-off is given here.

For data set [1], the system named is Staphylococcus aureus. Description: Antibacterial activity against Staphylococcus aureus K1758 measured after 24 hrs by Muller Hinton broth based MTT assay. In kind it is functional. A general note: Tetrazolium assays rely on reduction of a dye to a coloured formazan, in cell work by metabolically active cells.
The test system of data set [2] is Staphylococcus aureus. Kind of data set: Antibacterial activity against Staphylococcus aureus 1199 measured after 24 hrs by Muller Hinton broth based MTT assay. Type of data set: functional.
The test system of data set [3] is Staphylococcus aureus. Description: Up regulation of NorA gene expression in Staphylococcus aureus 1199B at 1.55 ug/ml measured after 2 hrs by qRT-PCR analysis relative to control. Type of data set: functional. The following applies: dose 1.55 µg/ml. (Real-time PCR tracks product formation cycle by cycle.)
For data set [4], the system named is Staphylococcus aureus. Kind of data set: Antibacterial activity against Staphylococcus aureus 1199B measured after 24 hrs by Muller Hinton broth based MTT assay. Type of data set: functional.
Data set [5] deals with Staphylococcus aureus. Description: Bactericidal activity against Staphylococcus aureus 1199B at 50 ug/mL by time-kill kinetics assay. In kind it is functional, organism-based. The following applies: dose 50.0 µg/ml.
The subject of data set [6] is Staphylococcus aureus. Description: Bactericidal activity against Staphylococcus aureus 1199B assessed as bacterial count at 3.1 ug/mL measured after 24 hrs by time-kill kinetics assay. Type of data set: functional. The following applies: dose 3.1 µg/ml.
Data set [7] has as its system Staphylococcus aureus. Kind of data set: Bactericidal activity against Staphylococcus aureus 1199B assessed as log reduction in bacterial count at 50 ug/mL measured after 8 hrs by time-kill kinetics assay. Type of data set: functional. The following applies: dose 50 µg/ml.
Data set [8] has as its target T1, Quinolone resistance protein NorA (Staphylococcus aureus) (UniProt P0A0J7).
T1 sequence (whole entry): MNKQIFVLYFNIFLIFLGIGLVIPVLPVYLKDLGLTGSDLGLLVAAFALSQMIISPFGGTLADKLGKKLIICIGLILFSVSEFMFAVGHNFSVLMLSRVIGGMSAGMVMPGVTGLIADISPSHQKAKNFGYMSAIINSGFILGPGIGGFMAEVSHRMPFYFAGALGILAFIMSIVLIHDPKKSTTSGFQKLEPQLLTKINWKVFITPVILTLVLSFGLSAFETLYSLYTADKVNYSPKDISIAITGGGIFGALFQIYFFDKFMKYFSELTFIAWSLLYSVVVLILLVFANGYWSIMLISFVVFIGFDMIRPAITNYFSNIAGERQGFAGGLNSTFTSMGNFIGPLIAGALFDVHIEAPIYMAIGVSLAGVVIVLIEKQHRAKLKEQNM
Kind of data set: Inhibition of NorA in Staphylococcus aureus 1199B assessed as potentiation of norfloxacin-induced morphological changes by measuring appearance of lysed cell at sub MIC by field emission scanning electron microscopy.

Data set [9] concerns the target T1, Quinolone resistance protein NorA (Staphylococcus aureus). Kind of data set: Inhibition of NorA in Staphylococcus aureus 1199B assessed as potentiation of 3.1 ug/mL norfloxacin-induced bactericidal activity by measuring log reduction in bacterial count at 7.8 ug/mL measured after 4 hrs by time-kill kinetics assay. The following applies: dose 7.8 µg/ml.
The target is the same in data set [10]. Kind of data set: Inhibition of NorA in Staphylococcus aureus 1199B assessed as accumulation of norfloxacin at 3.9 ug/ml by measuring fluorescence intensity measured at 5 mins interval for 40 mins by fluorescence spectrophotometry. The following applies: dose 3.9 µg/ml.
Data set [11] has the same target. Kind of data set: Inhibition of NorA in Staphylococcus aureus 1199B assessed as potentiation of ethidium bromide-induced antibacterial activity by measuring ethidium bromide MIC at sub MIC relative to ethidium bromide MIC alone.
For data set [12] the target is unchanged. Kind of data set: Inhibition of NorA in Staphylococcus aureus 1199B infected human THP-1 cells assessed as potentiation of norfloxacin-induced bactericidal activity by measuring reduction in intracellular proliferation at modulatory concentration measured after 24 hrs. Type of data set: cell-based.
The test system of data set [13] is Staphylococcus aureus. Description: Down regulation of NorA gene expression in Staphylococcus aureus 1199B at 1.55 ug/ml measured after 2 hrs by qRT-PCR analysis relative to control. In kind it is functional. The note with it: dose 1.55 µg/ml.
Data set [14] has as its target T1, Quinolone resistance protein NorA (Staphylococcus aureus). Kind of data set: Inhibition of NorA in Staphylococcus aureus 1199B infected human THP-1 cells assessed as potentiation of norfloxacin-induced bactericidal activity by measuring reduction in intracellular invasion at modulatory concentration measured after 24 hrs. In kind it is cell-based.
For data set [15] the target is unchanged. Kind of data set: Inhibition of NorA in Staphylococcus aureus 1199B infected human THP-1 cells assessed as potentiation of 3.1 ug/ml norfloxacin-induced bactericidal activity by measuring log reduction in bacterial count at 15.6 ug/ml measured after 24 hrs relative to control. Type of data set: cell-based. The note with it: dose 15.6 µg/ml.
For data set [16] the target is unchanged. Description: Inhibition of NorA in Staphylococcus aureus 1199B assessed as potentiation of ethidium bromide-induced antibacterial activity by measuring ethidium bromide MIC at sub MIC.
Data set [17] shares this target. Description: Inhibition of NorA in Staphylococcus aureus 1199B infected human THP-1 cells assessed as potentiation of norfloxacin-induced bactericidal activity by measuring reduction in bacterial count at modulatory concentration measured after 24 hrs relative to control. In kind it is cell-based.
Data set [18] has the same target. Kind of data set: Inhibition of NorA in Staphylococcus aureus 1199B assessed as potentiation of ethidium bromide-induced antibacterial activity by measuring fractional inhibitory concentration.
For data set [19] the target is unchanged. Kind of data set: Inhibition of NorA in Staphylococcus aureus 1199B assessed as potentiation of norfloxacin-induced antibacterial activity by measuring Norfloxacin MIC at sub MIC.
For data set [20] the target is unchanged. Kind of data set: Inhibition of NorA in Staphylococcus aureus 1199B assessed as potentiation of norfloxacin-induced antibacterial activity by measuring fractional inhibitory concentration.
The target is the same in data set [21]. Kind of data set: Inhibition of NorA in Staphylococcus aureus 1199B assessed as accumulation of ethidium bromide at 3.9 ug/ml by measuring fluorescence intensity measured at 5 mins interval for 40 mins by fluorescence spectrophotometry. The note with it: dose 3.9 µg/ml.
Data set [22] shares this target. Description: Inhibition of NorA in Staphylococcus aureus 1199B assessed as potentiation of 3.1 ug/mL ethidium bromide-induced bactericidal activity by measuring log reduction in bacterial count at sub MIC measured within 4 hrs by time-kill kinetics assay.
Data set [23] concerns Staphylococcus aureus. Description: Down regulation of NorA gene expression in Staphylococcus aureus 1199B at 3.9 ug/ml measured after 2 hrs by qRT-PCR analysis. In kind it is functional. The note with it: dose 3.9 µg/ml.
Data set [24] concerns the target T1, Quinolone resistance protein NorA (Staphylococcus aureus). Description: Inhibition of NorA in Staphylococcus aureus 1199B assessed as potentiation of norfloxacin-induced antibacterial activity by measuring Norfloxacin MIC at sub MIC relative to norfloxacin MIC alone.
Data set [25] has the same target. Description: Inhibition of NorA in Staphylococcus aureus 1199B infected human THP-1 cells assessed as potentiation of norfloxacin-induced bactericidal activity by measuring log reduction in bacterial count measured after 24 hrs relative to vancomycin. In kind it is cell-based.
The nature of data set [26]: Cytotoxicity against kidney epithelial cells (unknown origin) assessed as cell viability at 50 ug/mL measured after 24 hrs by alamar blue assay relative to control. In kind it is toxicity, cell-based, Fetal kidney cell. The note with it: at 50 µg/mL, read-out: Activity. For orientation: Resazurin is reduced to fluorescent resorufin, in cell work by metabolically active cells.

Data set [27] has as its system Staphylococcus aureus. Description: Down regulation of NorA gene expression in Staphylococcus aureus 1199B at 1.55 ug/ml measured after 2 hrs in presence of norfloxacin by qRT-PCR analysis relative to norfloxacin. Type of data set: functional. The note with it: dose 1.55 µg/ml.
The target in data set [28] is T1, Quinolone resistance protein NorA (Staphylococcus aureus). Description: Inhibition of NorA in Staphylococcus aureus 1199B infected human THP-1 cells assessed as potentiation of norfloxacin-induced bactericidal activity by measuring reduction in bacterial count at modulatory concentration measured after 24 hrs. In kind it is cell-based.
The target is the same in data set [29]. Description: Inhibition of NorA in Staphylococcus aureus 1199B infected human THP-1 cells assessed as potentiation of norfloxacin-induced bactericidal activity by measuring reduction in bacterial count at 1.7 to 3.4 ug/ml measured after 24 hrs relative to control. In kind it is cell-based. The following applies: dose 1.7-3.4 µg/ml.

As for `CCn1cc(C(=O)O)c(=O)c2cc(F)c(N3CCNCC3)cc21` [NORFLOXACIN], the MIC stood at 0.2 µg/mL (≈ 0.626 µM) in data set [1], 1.56 µg/mL (≈ 4.89 µM) in data set [2] and 50 µg/mL (≈ 157 µM) in data set [4]. In data set [3], the fold change (FC) amounted to 0.076. In addition, in [5], the inhibition entry is “Active”. For the same molecule, the Activity in data set [6] turned out to be 6 log10CFU/ml.

`CC[n+]1c(-c2ccccc2)c2cc(N)ccc2c2ccc(N)cc21.[Br-]` [HOMIDIUM BROMIDE]: in [4], the MIC worked out at 50 µg/mL. Moreover, the Activity in data set [7] is more than 3 log10CFU/ml.

As for `Fc1ccccc1C1=NC(c2ccco2)Nc2ccc(Cl)cc21` (stereo unspecified), the MIC was determined as 3.9 µg/mL (≈ 11.9 µM) in data set [1]; 125 µg/mL (≈ 383 µM) in data set [2]; 500 µg/mL (≈ 1530 µM) in data set [4]; 3.1 µg/mL in [16]; 3.1 µg/mL in [19]. For the same molecule, the inhibition result in [8], in [12] and in data set [14] was “Active” throughout. In addition, the Activity in [9] was more than 3 log10CFU/ml; in data set [22] it was more than 3 log10CFU/ml; in [28] it was 4.68 log10CFU/ml. The Flu intensity was 28700 in data set [10] and 248 in data set [21]. Also, the fold change (FC) in data set [11] turned out to be 16; in [13] it was 8; in data set [17], 4; in data set [24], 16; in data set [27] it was 9. Further, the figures for the FC in data set [15] and in data set [25] were 5 and 3, respectively. The fractional inhibitory concentration index (FICI) is 0.125 in [18] and 0.078 in data set [20]. Besides, in data set [23], the outcome was Active. Besides, the viability at 24 h, 50 ug/mL in [26] is 95.3%.

On to `CN[C@H](CC(C)C)C(=O)N[C@H]1C(=O)N[C@@H](CC(N)=O)C(=O)N[C@H]2C(=O)N[C@H]3C(=O)N[C@H](C(=O)N[C@H](C(=O)O)c4cc(O)cc(O)c4-c4cc3ccc4O)[C@H](O)c3ccc(c(Cl)c3)Oc3cc2cc(c3O[C@@H]2O[C@H](CO)[C@@H](O)[C@H](O)[C@H]2O[C@H]2C[C@](C)(N)[C@H](O)[C@H](C)O2)Oc2ccc(cc2Cl)[C@H]1O` [VANCOMYCIN], for which the MIC stood at 0.1 µg/mL (≈ 0.069 µM) in data set [1], 0.42 µg/mL (≈ 0.29 µM) in [2] and 1.7 µg/mL (≈ 1.17 µM) in [4]. Moreover, the fold change (FC) in [29] came out at 2.
